Measured values: US8404692B2, “Pyrimidin-4-yl-3, 4-dihydro-2H-pyrrolo [1,2A] pyrazin-1-one compounds” (Cyclacel Limited, priority 2005, dated 2013)

Molecular target: T1, aurora-A (human) (Homo sapiens, UniProt O14965)
T1 construct: purchased Upstate, Dundee, UK
T1 sequence (O14965 1-403): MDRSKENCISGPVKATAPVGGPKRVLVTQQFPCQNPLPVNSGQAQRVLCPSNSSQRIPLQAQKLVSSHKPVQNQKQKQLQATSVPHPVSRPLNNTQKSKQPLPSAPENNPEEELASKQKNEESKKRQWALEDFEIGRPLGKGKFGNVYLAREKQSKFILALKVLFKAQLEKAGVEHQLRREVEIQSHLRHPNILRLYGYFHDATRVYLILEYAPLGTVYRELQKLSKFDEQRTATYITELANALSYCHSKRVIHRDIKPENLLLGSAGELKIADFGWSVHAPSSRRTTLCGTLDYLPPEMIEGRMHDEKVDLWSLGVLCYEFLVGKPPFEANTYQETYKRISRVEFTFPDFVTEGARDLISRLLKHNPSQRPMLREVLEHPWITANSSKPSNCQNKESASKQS
Test: Aurora-A (human) kinase assay
Type: biochemical
Conditions: read-out: Activity (Aurora A activity, IC50 grading)
Procedure: This was achieved by measurement of incorporation of radioactive phosphate from ATP into Kemptide substrate (LRRASLG), upon phosphorylation by commercially obtained aurora-A (human, Upstate; Dundee, UK). Assays were performed using 96-well plates and appropriate assay buffers (20 mM Tris, 25 mM β-glycerophosphate, 5 mM EGTA, 1 mM DTT, 1 mM sodium vanadate, pH 7.5), into which were added 2-5 ng of active enzyme with 500 μM substrate (Kemptide). The reactions were initiated by addition of MATP mix (15 mM MgCl2+100 μM ATP with 15-25 kBq per well of [γ-^32P]-ATP) and mixtures incubated for 30 min at 30° C. Reactions were stopped by addition of an equal volume of 75 mM aq orthophosphoric acid, followed by filtration through p81 filterplates (Whatman Polyfiltronics, Kent, UK). After washing 4 times with 75 mM aq orthophosphoric acid, plates were dried, scintillant added and incorporated radioactivity measured in a scintillation counter (TopCount, Packard Instruments, Pangbourne, Berks, UK). Compounds for kinase assay were made up as 10 mM stocks in DMSO and diluted into 10% DMSO in assay buffer. Data was analysed using curve-fitting software (XLfit version 4.0.2, IDBS, Guildford, Surrey, UK) to determine IC50 values (concentration of test compound which inhibits kinase activity by 50%).

Row | IC50 [nM] | SMILES
1 | < 1000 | COc1ccc(Nc2nccc(-c3c(C)c4n(c3C)CCNC4=O)n2)cc1 [Example I-4, 7-[2-(4-Methoxy-phenylamino)-pyrimidin-4-yl]-6,8-dimethyl-3,4-dihydro-2H-pyrrolo[1,2-a]pyrazin-1-one]
2 | < 1000 | Cc1c(-c2ccnc(Nc3cccc([N+](=O)[O-])c3)n2)c(C)n2c1C(=O)NCC2 [Example I-5, 6,8-Dimethyl-7-[2-(3-nitro-phenylamino)-pyrimidin-4-yl]-3,4-dihydro-2H-pyrrolo[1,2-a]pyrazin-1-one]
3 | < 1000 | Cc1c(-c2ccnc(Nc3ccc(N(C)C)cc3)n2)c(C)n2c1C(=O)NCC2 [Example I-6, 7-[2-(4-Dimethylamino-phenylamino)-pyrimidin-4-yl]-6,8-dimethyl-3,4-dihydro-2H-pyrrolo[1,2-a]pyrazin-1-one]
4 | < 1000 | CC(=O)N1CCN(c2ccc(Nc3nccc(-c4c(C)c5n(c4C)CCNC5=O)n3)cc2)CC1 [Example I-7, 7-{2-[4-(4-Acetyl-piperazin-1-yl)-phenylamino]-pyrimidin-4-yl}-6,8-dimethyl-3,4-dihydro-2H-pyrrolo[1,2-a]pyrazin-1-one]
5 | < 1000 | CC(=O)N1CCN(c2ccc(Nc3nccc(-c4c(C)c5n(c4C)CCNC5=O)n3)cc2C)CC1 [Example I-8, 7-{2-[4-(4-Acetyl-piperazin-1-yl)-3-methyl-phenylamino]-pyrimidin-4-yl}-6,8-dimethyl-3,4-dihydro-2H-pyrrolo[1,2-a]pyrazin-1-one]
6 | < 1000 | COc1cc(Nc2nccc(-c3c(C)c4n(c3C)CCNC4=O)n2)ccc1N1CCN(C(C)=O)CC1 [Example I-9, 7-{2-[4-(4-Acetyl-piperazin-1-yl)-3-methoxy-phenylamino]-pyrimidin-4-yl}-6,8-dimethyl-3,4-dihydro-2H-pyrrolo[1,2-a]pyrazin-1-one]
7 | < 1000 | Cc1c(-c2ccnc(Nc3ccc4cn[nH]c4c3)n2)c(C)n2c1C(=O)NCC2 [Example I-11, 7-[2-(1H-Indazol-6-ylamino)-pyrimidin-4-yl]-6,8-dimethyl-3,4-dihydro-2H-pyrrolo[1,2-a]pyrazin-1-one]
8 | < 1000 | Cc1c(-c2ccnc(Nc3ccc4c(c3)OCC(=O)N4)n2)c(C)n2c1C(=O)NCC2 [Example I-12, 7-[4-(6,8-Dimethyl-1-oxo-1,2,3,4-tetrahydro-pyrrolo[1,2-a]pyrazin-7-yl)-pyrimidin-2-ylamino]-4H-benzo[1,4]oxazin-3-one]
9 | < 1000 | CCN(CC)c1ccc(Nc2nccc(-c3c(C)c4n(c3C)CCNC4=O)n2)cc1 [Example I-13, 7-[2-(4-Diethylamino-phenylamino)-pyrimidin-4-yl]-6,8-dimethyl-3,4-dihydro-2H-pyrrolo[1,2-a]pyrazin-1-one]
10 | < 1000 | Cc1c(-c2ccnc(Nc3ccc(N4CCOCC4)nc3)n2)c(C)n2c1C(=O)NCC2 [Example I-13a, 6,8-Dimethyl-7-[2-(6-morpholin-4-yl-pyridin-3-ylamino)-pyrimidin-4-yl]-3,4-dihydro-2H-pyrrolo[1,2-a]pyrazin-1-one]
11 | < 1000 | COc1ccc(Nc2nccc(-c3c(C)c4n(c3C)CCNC4=O)n2)cn1 [Example I-13b, 7-[2-(6-Methoxy-pyridin-3-ylamino)-pyrimidin-4-yl]-6,8-dimethyl-3,4-dihydro-2H-pyrrolo[1,2-a]pyrazin-1-one]
12 | < 1000 | Cc1c(-c2ccnc(Nc3ccc(Br)cc3)n2)c(C)n2c1C(=O)NCC2 [Example I-14, 7-[2-(4-Bromo-phenylamino)-pyrimidin-4-yl]-6,8-dimethyl-3,4-dihydro-2H-pyrrolo[1,2-a]pyrazin-1-one]
13 | < 1000 | Cc1c(-c2ccnc(Nc3cccc(S(=O)(=O)CCO)c3)n2)c(C)n2c1C(=O)NCC2 [Example I-15, 7-{2-[3-(2-Hydroxy-ethanesulfonyl)-phenylamino]-pyrimidin-4-yl}-6,8-dimethyl-3,4-dihydro-2H-pyrrolo[1,2-a]pyrazin-1-one]
14 | < 100 | Cc1c(-c2ccnc(Nc3ccc4sc(C(=O)O)cc4c3)n2)c(C)n2c1C(=O)NCC2 [Example I-16, 5-[4-(6,8-Dimethyl-1-oxo-1,2,3,4-tetrahydro-pyrrolo[1,2-a]pyrazin-7-yl)-pyrimidin-2-ylamino]-benzo[b]thiophene-2-carboxylic acid]
15 | < 1000 | Cc1c(-c2ccnc(Nc3ccc(O)cc3)n2)c(C)n2c1C(=O)NCC2 [Example I-17, 7-[2-(4-Hydroxy-phenylamino)-pyrimidin-4-yl]-6,8-dimethyl-3,4-dihydro-2H-pyrrolo[1,2-a]pyrazin-1-one]
16 | < 100 | COc1cc(Nc2nccc(-c3c(C)c4n(c3C)CCNC4=O)n2)ccc1S(=O)(=O)NC(C)C [Example I-18, 4-[4-(6,8-Dimethyl-1-oxo-1,2,3,4-tetrahydro-pyrrolo[1,2-a]pyrazin-7-yl)-pyrimidin-2-ylamino]-N-isopropyl-2-methoxy-benzenesulfonamide]
17 | < 1000 | Cc1c(-c2ccnc(Nc3ccc(S(=O)(=O)NC(C)C)cc3)n2)c(C)n2c1C(=O)NCC2 [Example I-19, 4-[4-(6,8-Dimethyl-1-oxo-1,2,3,4-tetrahydro-pyrrolo[1,2-a]pyrazin-7-yl)-pyrimidin-2-ylamino]-N-isopropyl-benzenesulfonamide]
18 | < 1000 | Cc1c(-c2ccnc(Nc3ccc(NS(C)(=O)=O)cc3)n2)c(C)n2c1C(=O)NCC2 [Example I-20, N-{4-[4-(6,8-Dimethyl-1-oxo-1,2,3,4-tetrahydro-pyrrolo[1,2-a]pyrazin-7-yl)-pyrimidin-2-ylamino]-phenyl}-methanesulfonamide]
19 | < 10000 | CCN(CC)CCCNS(=O)(=O)c1ccc(Nc2nccc(-c3c(C)c4n(c3C)CCNC4=O)n2)cc1C [Example I-21, N-(3-Diethylamino-propyl)-4-[4-(6,8-dimethyl-1-oxo-1,2,3,4-tetrahydro-pyrrolo[1,2-a]pyrazin-7-yl)-pyrimidin-2-ylamino]-2-methyl-benzenesulfonamide]
20 | < 1000 | COc1cc(Nc2nccc(-c3c(C)c4n(c3C)CCNC4=O)n2)ccc1S(=O)(=O)N1CCCCC1 [Example I-22, 7-{2-[3-Methoxy-4-(piperidine-1-sulfonyl)-phenylamino]-pyrimidin-4-yl}-6,8-dimethyl-3,4-dihydro-2H-pyrrolo[1,2-a]pyrazin-1-one]
21 | < 1000 | COc1cc(Nc2nccc(-c3c(C)c4n(c3C)CCNC4=O)n2)ccc1S(=O)(=O)NCCN(C)C [Example I-23, N-(2-Dimethylamino-ethyl)-4-[4-(6,8-dimethyl-1-oxo-1,2,3,4-tetrahydro-pyrrolo[1,2-a]pyrazin-7-yl)-pyrimidin-2-ylamino]-2-methoxy-benzenesulfonamide]
22 | < 1000 | COc1cc(Nc2nccc(-c3c(C)c4n(c3C)CCNC4=O)n2)ccc1S(=O)(=O)N1CCN(C)CC1 [Example I-24, 7-{2-[3-Methoxy-4-(4-methyl-piperazine-1-sulfonyl)-phenylamino]-pyrimidin-4-yl}-6,8-dimethyl-3,4-dihydro-2H-pyrrolo[1,2-a]pyrazin-1-one]
23 | < 1000 | Cc1c(-c2ccnc(Nc3cccc(C(=O)O)c3)n2)c(C)n2c1C(=O)NCC2 [Example I-25, [4-(6,8-Dimethyl-1-oxo-1,2,3,4-tetrahydro-pyrrolo[1,2-a]pyrazin-7-yl)-pyrimidin-2-ylamino]-benzoic acid]
24 | < 100 | Cc1c(-c2ccnc(Nc3ccc(C(=O)O)cc3)n2)c(C)n2c1C(=O)NCC2 [Example I-26, 4-[4-(6,8-Dimethyl-1-oxo-1,2,3,4-tetrahydro-pyrrolo[1,2-a]pyrazin-7-yl)-pyrimidin-2-ylamino]-benzoic acid]
25 | < 1000 | COc1cc(C(=O)O)ccc1Nc1nccc(-c2c(C)c3n(c2C)CCNC3=O)n1 [Example I-27, 4-[4-(6,8-Dimethyl-1-oxo-1,2,3,4-tetrahydro-pyrrolo[1,2-a]pyrazin-7-yl)-pyrimidin-2-ylamino]-3-methoxy-benzoic acid]
26 | < 1000 | COc1ccc(Nc2nccc(-c3c(C)c4n(c3C)CCNC4=O)n2)cc1O [Example I-28, 7-[2-(3-Hydroxy-4-methoxy-phenylamino)-pyrimidin-4-yl]-6,8-dimethyl-3,4-dihydro-2H-pyrrolo[1,2-a]pyrazin-1-one]
27 | < 1000 | Cc1c(-c2ccnc(Nc3ccc4c(c3)OCO4)n2)c(C)n2c1C(=O)NCC2 [Example I-29, 7-[2-(Benzo-[1,3]dioxol-5-ylamino)-pyrimidin-4-yl]-6,8-dimethyl-3,4-dihydro-2H-pyrrolo[1,2-a]pyrazin-1-one]
28 | < 10000 | Cc1c(-c2ccnc(Nc3cccc(OC(F)(F)F)c3)n2)c(C)n2c1C(=O)NCC2 [Example I-30, 6,8-Dimethyl-7-[2-(3-trifluoromethoxy-phenylamino)pyrimidin-4-yl]-3,4-dihydro-2H-pyrrolo[1,2-a]pyrazin-1-one]
